Substitutions are numbered along the chain they refer to. Read-outs that look alike come from different tables or passages of the source.
What was measured:
[1] = target: T1, human TAS2R7 (Homo sapiens, UniProt Q9NYW3); test: Calcium mobilization assay, HEK293 cells transfected with TAS2R7 and Gα16-gust44; format: cell-based
T1 construct: first 45 residues of rat somatostatin receptor 3 (signal peptide) (N); expressed in transfected cells; host or cells: HEK293 (PEAKrapid, ATCC CRL-2828)
T1 sequence (Q9NYW3 1-318): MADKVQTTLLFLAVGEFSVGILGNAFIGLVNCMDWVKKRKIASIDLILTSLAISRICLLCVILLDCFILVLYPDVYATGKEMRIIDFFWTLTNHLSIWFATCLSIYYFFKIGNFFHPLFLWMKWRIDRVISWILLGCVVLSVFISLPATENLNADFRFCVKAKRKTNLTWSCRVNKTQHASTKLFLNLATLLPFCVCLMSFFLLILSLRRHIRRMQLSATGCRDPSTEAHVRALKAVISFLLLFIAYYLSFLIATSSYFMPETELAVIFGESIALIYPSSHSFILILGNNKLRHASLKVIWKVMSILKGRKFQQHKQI
Source text: (§1) The coding sequences of human TAS2Rs were amplified from human genomic DNA, then subcloned into pcDNA3.1(+) vector, with the herpes simplex virus glycoprotein D epitope (HSV) at the C-terminal and a signal peptide consisting of the first 45 amino acid residues of the rat somatostatin receptor 3 at the N-terminal, essentially as described previously ([Bufe et al. 2002]). Point mutations in human TAS2R7 (NCBI Reference Sequence: NP_076408.1) were constructed by site-directed mutagenesis. All the constructs were confirmed by Sanger sequencing.
All tested compounds were purchased from Sigma–Aldrich, with the exception of diphenidol hydrochloride (Reagent World) and L-praziquantel (manufactured by Shaoxing Pharmaceutical Co. Ltd.). All the metal ions were dissolved in the assay solution (130 mM NaCl, 5 mM KCl, 2 mM CaCl2, and 10 mM glucose; pH 7.4) unless specified otherwise, and the bitter compounds (diphenidol, quinine, and chlorphenamine) were dissolved first in dimethyl sulfoxide (DMSO) as stock solution and then diluted with the assay solution; the final DMSO concentration was below 0.5%, with the exception of cromolyn, which is dissolved in the assay solution directly. For our initial screening (Table 1), Hanks’ balanced salt solution (HBSS, ThermoFisher, catalog no. 14025134) supplemented with 10 mM hydroxyethyl piperazineethanesulfonic acid (HEPES) were used as the assay buffer.
Human embryonic kidney 293 (PEAKrapid, ATCC # CRL-2828) cells were cultured in Opti-MEM medium with 4% fetal bovine serum. One day before transfection, cells were seeded on a 96-well plate at a density of 25 000 per well. Cells were then transiently transfected with a TAS2R construct (0.1 µg/well) along with a G protein Gα16-gust44 (0.1 µg/well) construct by Lipofectamine 2000 (0.5 µl/well). For controls, only Gα16-gust44 was used (mock transfection). Twenty-four hours after transfection, cells were washed with HBSS including 10 mM HEPES and loaded with Fluo-4 in the dark for 1 h. After incubation, cells were washed 2 times with HBSS (including 10 mM HEPES), incubated in the dark for another 30 min, and then washed with assay solution once more before running the assay using a FlexStation III reader. Relative fluorescence units (excitation at 494 nm, emission at 516 nm, and auto cutoff at 515 nm) were read every 2 s for 2 min. Calcium mobilization traces were recorded.
Calcium mobilization traces were raw data obtained from single wells. Changes in fluorescence (ΔF) were calculated as the peak fluorescence minus baseline fluorescence ([Lei et al. 2015]). The calcium mobilization was quantified as the percentage of change (ΔF) relative to baseline (F). […] Calcium mobilization traces and bar graphs along with dose-dependent plots were all generated by GraphPad Prism 7. Analysis of variance with Dunnett’s multiple comparisons test was used for statistical analysis. *P < 0.05.
To determine whether a TAS2R responds to metal ions, we expressed all 25 human bitter receptors individually in HEK293 cells (PEAKrapid) by transient transfection of a TAS2R along with a coupling chimeric G protein, Gα16-gust44. All TAS2Rs were cloned from human genomic DNA. Activation of human TAS2Rs was monitored by the calcium mobilization assay ([Lei et al. 2015]). We tested these receptors individually for their responses toward metal ions: ZnSO4 (20 mM), CuSO4 (20 mM), and MgCl2 (20 mM) (Table 1, Figure 1A). […] To determine the breadth of tuning of TAS2R7 toward metal ions, we also tested MnCl2 (20 mM), Al2(SO4)3 ([…]), and CaCl2 (20 mM) (Figure 1B).

[2] = target: T2, human TAS2R7 E271^7.39 to leucine mutant (Homo sapiens, UniProt Q9NYW3, E271L); test: Calcium mobilization assay, TAS2R7 mutant E271L; format: cell-based; settings: 20 mM metal ions except 0.16 mM Al2(SO4)3; cromolyn 10 mM; Figure 6C
T2 construct: signal peptide: first 45 amino acid residues of rat somatostatin receptor 3 (N); expressed in transfected cells; host or cells: HEK293 PEAKrapid (ATCC CRL-2828), transient, co-transfected with Gα16-gust44
T2 sequence (Q9NYW3 1-318 E271L): T1 sequence (Q9NYW3 1-318) with E271L
Source text: as §1
Human embryonic kidney 293 (PEAKrapid, ATCC # CRL-2828) cells were cultured in Opti-MEM medium with 4% fetal bovine serum. […] After incubation, cells were washed 2 times with HBSS (including 10 mM HEPES), incubated in the dark for another 30 min, and then washed with assay solution once more before running the assay using a FlexStation III reader. Relative fluorescence units (excitation at 494 nm, emission at 516 nm, and auto cutoff at 515 nm) were read every 2 s for 2 min. Calcium mobilization traces were recorded.
Calcium mobilization traces were raw data obtained from single wells. Changes in fluorescence (ΔF) were calculated as the peak fluorescence minus baseline fluorescence ([Lei et al. 2015]). The calcium mobilization was quantified as the percentage of change (ΔF) relative to baseline (F). […]

[3] = target: T1, human TAS2R7; set-up: method as in Meyerhof et al. 2010; settings: ref Meyerhof et al. 2010; cited from earlier work

- Response of TAS2R7-transfected cells at higher dose ([1]; 10 mM): robust response
- EC50 ([1]; Figure 4B, read-out: EC50, TAS2R7, dose-response analysis): 5.9 mM
- EC50 ([1]; assay solution containing calcium, Figures 3A, 4C, read-out: EC50, TAS2R7, in the presence of calcium): 6.67 mM
- EC50 ([1]; assay solution containing no calcium, Figures 3A, 4C, read-out: EC50, TAS2R7, in the absence of calcium): 5.22 mM
- Maximal response of TAS2R7 in the absence versus presence of calcium ([1]; assay solution without calcium compared with calcium): smaller
- Compounds triggering detectable responses in cells transfected with TAS2R7 ([1]; at the concentrations reported previously (Meyerhof et al. 2010), Figure 4A): none
- Response of E271 to leucine mutant receptor [2]: slightly reduced responses
SMILES: O=C(O)c1cc(=O)c2c(OCC(O)COc3cccc4oc(C(=O)O)cc(=O)c34)cccc2o1 [cromolyn, reference compound]
- TAS2R7 reported to respond to bitter compounds [3]: respond

From PMC6538953, “Metal Ions Activate the Human Taste Receptor TAS2R7” (Chemical Senses, 2019)
